Measurements reported in patent US20240226125A1, “USE OF SOTAGLIFLOZIN FOR THE TREATMENT OF PATIENTS WITH TYPE 1 DIABETES MELLITUS” (priority 2019, published 2024).

System: adult patients with Type 1 Diabetes Mellitus who have inadequate glycemic control with insulin therapy
Assay: inTandem 1 and inTandem 2 pooled clinical studies, safety events / main risks
Assay type: in vivo, human
Conditions: for Discontinuation of drug due to diarrhea / Patients with Any TEAE, (%) / Patients with DKA (positively adjudicated), (%) / Patients with Diarrhea, (%) / Patients with Genital mycotic infection, (%) / Patients with Severe hypoglycemia (positively adjudicated), (%): through 52 Weeks
[1] = 400 mg, Baseline BMI <27 kg/m^2, Week 52
[2] = 400 mg, Baseline BMI ≥27 kg/m^2, Week 52

In the case of `CCOc1ccc(Cc2cc([C@@H]3O[C@H](SC)[C@@H](O)[C@H](O)[C@H]3O)ccc2Cl)cc1` [sotagliflozin, (2S,3R,4R,5S,6R)-2-(4-chloro-3-(4-ethoxybenzyl)phenyl)-6-(methylthio)tetrahydro-2H-pyran-3,4,5-triol], the “Diarrhea, EAIR per 1,000 Subject-years (95% CL)” value [1] is reported as 102.78 (56.56, 148.99) per 1,000 Subject-years, the “Diarrhea, Events [n (%) n]: events n” value [1] is reported as 28 and the “Diarrhea, Events [n (%) n]: patients (%)” value [1] is reported as 9.0%. For the same molecule, the “Diarrhea, Events [n (%) n]: patients n” value [1] was 19, the “Diarrhea, Events per Subject per Year” value [1] was 0.151 Events per Subject per Year and the “Diarrhea, Relative Risk of EAIR (95% CL) Versus Placebo” value [1] was 2.98 (1.28, 7.60). The “Documented hypoglycemia <55 mg/dL, Events per Subject per Year” value [1] was 15.74 Events per Subject per Year, the “Genital Mycotic Infections (female), EAIR per 1,000 Subject-years (95% CL)” value [1] was 196.79 (108.30, 285.28) per 1,000 Subject-years and the “Genital Mycotic Infections (female), Events [n (%) n]: events n” value [1] was 31. The “Genital Mycotic Infections (female), Events [n (%) n]: patients (%)” value [1] was 16.8%, the “Genital Mycotic Infections (female), Events per Subject per Year” value [1] was 0.321 Events per Subject per Year and the “Genital Mycotic Infections (female), Relative Risk of EAIR (95% CL) Versus Placebo” value [1] was 6.46 (2.09, 27.41). For the same molecule, the “Genital Mycotic Infections (male), EAIR per 1,000 Subject-years (95% CL)” value [1] was 101.91 (35.33, 168.49) per 1,000 Subject-years, the “Genital Mycotic Infections (male), Events [n (%) n]: events n” value [1] was 10 and the “Genital Mycotic Infections (male), Events [n (%) n]: patients (%)” value [1] was 9.1%. For the same molecule, the “Genital Mycotic Infections (male), Events per Subject per Year” value [1] was 0.113 Events per Subject per Year, the “Genital Mycotic Infections (male), Relative Risk of EAIR (95% CL) Versus Placebo” value [1] was 5.31 (1.26, 36.06) and the “Positively Adjudicated Diabetic Ketoacidosis, EAIR per 1,000 Subject-years (95% CL)” value [1] was 48.68 (16.88, 80.49) per 1,000 Subject-years. For the same molecule, the “Positively Adjudicated Diabetic Ketoacidosis, Events [n (%) n]: events n” value [1] was 9, the “Positively Adjudicated Diabetic Ketoacidosis, Events [n (%) n]: patients (%)” value [1] was 4.2% and the “Positively Adjudicated Diabetic Ketoacidosis, Events per Subject per Year” value [1] was 0.049 Events per Subject per Year. For the same molecule, the “Positively Adjudicated Severe Hypoglycemia, EAIR per 1,000 Subject-years (95% CL)” value [1] was 59.50 (24.34, 94.67) per 1,000 Subject-years, the “Positively Adjudicated Severe Hypoglycemia, Events [n (%) n]: events n” value [1] was 16 and the “Positively Adjudicated Severe Hypoglycemia, Events [n (%) n]: patients (%)” value [1] was 5.2%. The “Positively Adjudicated Severe Hypoglycemia, Events per Subject per Year” value [1] was 0.087 Events per Subject per Year, the “Positively Adjudicated Severe Hypoglycemia, Relative Risk of EAIR (95% CL) Versus Placebo” value [1] was 0.71 (0.32, 1.51) and the “Diarrhea, EAIR per 1,000 Subject-years (95% CL)” value [2] was 92.38 (57.53, 127.23) per 1,000 Subject-years. The “Diarrhea, Events [n (%) n]: events n” value [2] was 37, the “Diarrhea, Events [n (%) n]: patients (%)” value [2] was 8.6% and the “Diarrhea, Events [n (%) n]: patients n” value [2] was 27. The “Diarrhea, Events per Subject per Year” value [2] was 0.127 Events per Subject per Year, the “Diarrhea, Relative Risk of EAIR (95% CL) Versus Placebo” value [2] was 1.25 (0.70, 2.27) and the “Documented hypoglycemia <55 mg/dL, Events per Subject per Year” value [2] was 14.45 Events per Subject per Year. For the same molecule, the “Genital Mycotic Infections (female), EAIR per 1,000 Subject-years (95% CL)” value [2] was 192.26 (121.05, 263.48) per 1,000 Subject-years, the “Genital Mycotic Infections (female), Events [n (%) n]: events n” value [2] was 48 and the “Genital Mycotic Infections (female), Events [n (%) n]: patients (%)” value [2] was 17.6%. The “Genital Mycotic Infections (female), Events per Subject per Year” value [2] was 0.330 Events per Subject per Year, the “Genital Mycotic Infections (female), Relative Risk of EAIR (95% CL) Versus Placebo” value [2] was 2.70 (1.30, 6.04) and the “Genital Mycotic Infections (male), EAIR per 1,000 Subject-years (95% CL)” value [2] was 47.74 (12.37, 83.10) per 1,000 Subject-years. For the same molecule, the “Genital Mycotic Infections (male), Events [n (%) n]: events n” value [2] was 10, the “Genital Mycotic Infections (male), Events [n (%) n]: patients (%)” value [2] was 4.5% and the “Genital Mycotic Infections (male), Events per Subject per Year” value [2] was 0.068 Events per Subject per Year. For the same molecule, the “Genital Mycotic Infections (male), Relative Risk of EAIR (95% CL) Versus Placebo” value [2] was 6.93 (1.07, 157.36), the “Positively Adjudicated Diabetic Ketoacidosis, EAIR per 1,000 Subject-years (95% CL)” value [2] was 37.64 (15.39, 59.88) per 1,000 Subject-years and the “Positively Adjudicated Diabetic Ketoacidosis, Events [n (%) n]: events n” value [2] was 11. The “Positively Adjudicated Diabetic Ketoacidosis, Events [n (%) n]: patients (%)” value [2] was 3.5%, the “Positively Adjudicated Diabetic Ketoacidosis, Events per Subject per Year” value [2] was 0.038 Events per Subject per Year and the “Positively Adjudicated Diabetic Ketoacidosis, Relative Risk of EAIR (95% CL) Versus Placebo” value [2] was 10.22 (1.74, 221.94). The “Positively Adjudicated Severe Hypoglycemia, EAIR per 1,000 Subject-years (95% CL)” value [2] was 41.06 (17.83, 64.29) per 1,000 Subject-years, the “Positively Adjudicated Severe Hypoglycemia, Events [n (%) n]: events n” value [2] was 17 and the “Positively Adjudicated Severe Hypoglycemia, Events [n (%) n]: patients (%)” value [2] was 3.8%. The “Positively Adjudicated Severe Hypoglycemia, Events per Subject per Year” value [2] was 0.058 Events per Subject per Year, the “Positively Adjudicated Severe Hypoglycemia, Relative Risk of EAIR (95% CL) Versus Placebo” value [2] was 0.51 (0.24, 1.02) and the “Discontinuation of drug due to diarrhea” value (SOTA 200 mg) was 0.4%. The “Patients with Any TEAE, (%)” value (SOTA 200 mg) was “(75.0) %”, the “Patients with DKA (positively adjudicated), (%)” value (SOTA 200 mg) was “(2.9) %” and the “Patients with Diarrhea, (%)” value (SOTA 200 mg) was “(6.5) %”. The “Patients with Genital mycotic infection, (%)” value (SOTA 200 mg) was “(9.2) %”, the “Patients with Severe hypoglycemia (positively adjudicated), (%)” value (SOTA 200 mg) was “(5.7) %” and the “Discontinuation of drug due to diarrhea” value (SOTA 400 mg) was 0.8%. The “Patients with Any TEAE, (%)” value (SOTA 400 mg) was “(74.3) %”, the “Patients with DKA (positively adjudicated), (%)” value (SOTA 400 mg) was “(3.8) %” and the “Patients with Diarrhea, (%)” value (SOTA 400 mg) was “(8.8) %”. For the same molecule, the “Patients with Genital mycotic infection, (%)” value (SOTA 400 mg) was “(12.0) %”, the “Patients with Severe hypoglycemia (positively adjudicated), (%)” value (SOTA 400 mg) was “(4.4) %” and the “risk of diarrhea compared to placebo” value (baseline BMI ≥27 kg/m^2, any doses) was “No increased risk”. The “risk of DKA versus placebo” value (both BMI subgroups) was “increased”, the “risk of severe hypoglycemia” value (both doses, baseline BMI ≥27 kg/m^2 (only 400 mg in BMI <27 kg/m^2)) was “numerically lower risk” and the “event rates of documented hypoglycemia ≤55 mg/dL” value (both doses, both BMI subgroups) was “numerically lower”.
